{"source": "patent US20240398783A1", "about": "“Compounds and Pharmaceutical Compositions Comprising Inhibitors of Amyloid Peptide Interactions with Glycosaminoglycans, Methods of Treatment and Use Thereof” (Gismo Therapeutics, Inc., priority 2021, published 2024)", "key": {"[1]": {"biological_target": "T1, SAA binding to heparin (HS-GAG) (Homo sapiens, UniProt P0DJI8)", "T1 sequence (P0DJI8 19-122)": "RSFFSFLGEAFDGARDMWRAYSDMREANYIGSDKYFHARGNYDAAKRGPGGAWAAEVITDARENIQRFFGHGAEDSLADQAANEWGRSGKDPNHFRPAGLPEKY", "experiment": "Inhibition of SAA binding to immobilized heparin-BSA (ELISA)", "design": "species or system porcine", "method": "(§1) Porcine intestinal mucosa heparin conjugated to Bovine Serum Albumin (Heparin-BSA) was prepared as described (Najjam, S. et al. 1997, Cytokine 12, 1013-1022). Heparin is a sulfated HS-GAG and is commonly used as a HS-GAG in biochemical and binding assays (Lindahl, U. and Kjellen, L. (2013) ibid). Heparin-BSA at 0.01 mg/ml in Phosphate Buffered Saline (PBS; pH 7.4) was added to a 96 well polystyrene ELISA plate (NUNC Cat. No. 449824; 100 μl per well) and incubated Over Night (ON) at 4 degrees Celsius. For negative controls, ELISA plates were coated with BSA instead of Heparin-BSA, using the same procedure. Following the incubation, the plate was washed consecutively, by immersion, with de-ionized water and PBS (pH 7.4). The ELISA plate was then blocked with nonfat milk (2%, 200 μl per well) for 2 hours at Room Temperature (RT) with gentle shaking. Following blocking, the plate was washed with de-ionized water then PBS (pH 7.4). GBAPs were dissolved and diluted in PBS (pH 6.5, supplemented with 0.1% BSA) at desired concentrations, added to the ELISA plates containing immobilized Heparin-BSA (100 μl per well) and incubated for 2 hours at RT with gentle shaking. Following incubation, the plate was washed with de-ionized water and three times with PBS (pH 6.5) plus Tween. Bound GBAP was detected by a monoclonal antibody specific for that GBAP, followed by incubation with secondary antibody conjugated to horseradish peroxidase (HRP). Antibody was diluted in PBS (pH 6.5 supplemented with 1% BSA). Following each incubation with antibody, the plate was washed with de-ionized water and three times with PBS (pH 6.5) wash buffer containing 0.1% Tween. The peroxidase substrate chromogen, TMB (Dako Cat. No. S1599) was added (100 μl per well) to the ELISA plate and incubated at room temperature. After 5 minutes ELISA Stop Solution (hydrochloric acid 1N, sulfuric acid 3N) was added (100 μl per well) to stop the peroxidase catalyzed colorimetric reaction. The Optical Density of the samples was measured at 450 nm using an ELISA plate reader (BioTek Synergy H1). Following color development, the % inhibition compared to control (BSA-coated plates) was determined. IC-50s were calculated using GraphPad Prism software.\nThe assay was performed as described in Example 43, with the following modifications. Following to coating the plates with Heparin-BSA, plates were washed as described. The compounds were dissolved in DMSO at 10 mM final concentration and further diluted prior to assay. DMSO concentration in the screening well was up to 2%. Individual compounds were co-incubated with SAA on plates containing immobilized heparin. Serum amyloid A (SAA) from PeProtech (NJ, USA, Cat. No. 300-53) was dissolved in DMSO, quickly frozen and kept in aliquots at −80 degrees Celsius. SAA dissolved in Tris buffer (pH 6.5, supplemented with BSA, 0.1%) was added to the ELISA plate (100 μl per well) and incubated for 2 hours at RT with gentle shaking. Following the incubation, the plate was washed with de-ionized water and three times with Tris Buffered Saline (TBS, pH 6.5) plus Tween. Bound SAA was detected by Anti-SAA Monoclonal Antibody (R&D System Cat. No. MAB30192), followed by secondary anti-IgG antibody conjugated to HRP (R&D System, Cat. No. HAF007). Antibody was diluted in TBS antibody buffer (pH6.5 supplemented with 1% BSA). Following each incubation with antibody, the plate was washed with de-ionized water and three times with TBS (pH6.5) wash buffer containing 0.1% Tween. Following to color development with TMB, as described in Example 43, the Optical Density of the samples was measured at 450 nm using an ELISA plate reader. Following color development, the % inhibition compared to control (no compound, DMSO control) for every compound was determined.\nAs described in Example 43, Heparin in the form of Heparin-BSA conjugate is used as a source of HS-GAG. For each compound IC-50 value in SAA—heparin-BSA binding assay is shown in μM (micromolar). […]"}, "[2]": {"biological_target": "TDP-43 binding to heparin (HS-GAG) (Homo sapiens, UniProt Q13148)", "sequence (Q13148 whole entry)": "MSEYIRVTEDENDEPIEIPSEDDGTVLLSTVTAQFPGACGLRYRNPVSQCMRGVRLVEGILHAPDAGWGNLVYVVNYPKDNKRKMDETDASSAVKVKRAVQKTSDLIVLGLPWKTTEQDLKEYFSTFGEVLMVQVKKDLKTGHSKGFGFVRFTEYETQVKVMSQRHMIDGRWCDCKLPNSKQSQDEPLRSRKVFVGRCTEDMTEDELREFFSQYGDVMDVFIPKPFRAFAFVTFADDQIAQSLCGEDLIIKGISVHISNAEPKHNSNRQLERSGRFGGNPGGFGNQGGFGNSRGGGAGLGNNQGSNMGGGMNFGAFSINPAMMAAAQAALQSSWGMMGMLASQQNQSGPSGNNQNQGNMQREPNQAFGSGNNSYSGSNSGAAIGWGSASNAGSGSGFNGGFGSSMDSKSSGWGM", "experiment": "Inhibition of TDP-43 binding to immobilized heparin-BSA (ELISA)", "design": "species or system porcine", "conditions": "for inhibition at 30 µM: read-out: TDP43/Heparin Activity (% inhibition class); for IC50: TDP-43, heparin-BSA", "method": "as §1\nThe assay was performed as described in Example 43, with the following modifications.\nFollowing to coating the plates with Heparin-BSA, plates were washed as described. The compounds were dissolved in DMSO at 10 mM final concentration and further diluted prior to assay. DMSO concentration in the screening well was up to 2%. Individual compounds were co-incubated with TDP-43 on plates containing immobilized heparin. TDP43 from R&D System (Cat. No. AP-190) was quickly frozen and kept in aliquots at −80 degrees Celsius. TDP-43 dissolved in PBS (pH 6.5, supplemented with BSA, 0.1%) was added to the ELISA plate (100 μl per well) and incubated for 2 hours at RT with gentle shaking. Following the incubation, the plate was washed with de-ionized water and three times with PBS (pH 6.5) plus Tween. Bound TDP-43 was detected by Anti-TDP43 Monoclonal Antibody (R&D System Cat. No. MAB7778), followed by secondary anti-IgG antibody conjugated to HRP (R&D System, Cat. No. HAF007). Following to color development with TMB, as described in Example 43, the Optical Density of the samples was measured at 450 nm using an ELISA plate reader. Following color development, the % inhibition compared to control (no compound, DMSO control) for every compound was determined.\nAs described in Example 43, Heparin in the form of Heparin-BSA conjugate is used as a source of HS-GAG. For each compound IC-50 value in TDP-43—heparin-BSA binding assay is shown in μM (micromolar). In some cases IC-50 was not measured and % inhibition at 30 μM compound concentration is shown instead. […] All assays were done on 96-well plates in duplicates and experiments were repeated at least twice. […]"}, "[3]": {"conditions": "read-out: Serum Amyloid A/Heparin Activity (% inhibition class)"}, "[4]": {"conditions": "read-out: Serum Amyloid A/Heparin Activity (IC-50); SAA, heparin-BSA"}, "[5]": {"conditions": "30 μM compound; SAA, heparin-BSA; read-out: Serum Amyloid A/Heparin Activity (% inhibition class)"}}, "note": "Where a name gives a salt, the structure may show the parent alone. Read-outs that look alike come from different tables or passages of the source.", "data": [{"compound": "COc1cc(Nc2cncc3cc(Cl)ccc23)cnc1-n1cnc(C)c1C", "note": "[Compound 33, 7-chloro-N-(6-(4,5-dimethyl-1H-imidazol-1-yl)-5-methoxypyridin-3-yl)isoquinolin-4-amine phosphoric acid salt]", "values": [{"measurement": "inhibition at 30 µM", "setting": "[1]; [3]", "value": "< 30", "unit": "%"}, {"measurement": "inhibition at 30 µM", "setting": "[2]", "value": "< 30", "unit": "%"}]}, {"compound": "Clc1ccc2c(Nc3ccc(-n4cncn4)nc3)ncnc2c1", "note": "[Compound 34, N-(6-(1H-1,2,4-triazol-1-yl)pyridin-3-yl)-7-chloroquinazolin-4-amine phosphoric acid salt]", "values": [{"measurement": "IC50", "setting": "[1]; [4]", "value": 12.4, "unit": "µM"}, {"measurement": "IC50", "setting": "[2]; TDP43/Heparin Activity (IC-50)", "value": 5.23, "unit": "µM"}]}, {"compound": "Fc1cc(/C=N/Nc2ccnc3cc(Cl)ccc23)ccc1-n1ccnc1", "note": "[Compound 35, (E)-7-chloro-4-(2-(3-fluoro-4-(1H-imidazol-1-yl)benzylidene)hydrazineyl)quinoline hydrochloride]", "values": [{"measurement": "IC50", "setting": "[1]; [4]", "value": 31.8, "unit": "µM"}, {"measurement": "IC50", "setting": "[2]; TDP43/Heparin Activity (IC-50)", "value": 15.6, "unit": "µM"}]}, {"compound": "CC(=NNc1ccnc2cc(Cl)ccc12)c1ccc(-n2ccnc2)cc1", "note": "[Compound 36, 4-(2-(1-(4-(1H-imidazol-1-yl)phenyl)ethylidene)hydrazineyl)-7-chloroquinoline phosphate]", "values": [{"measurement": "IC50", "setting": "[1]; [4]", "value": 22, "unit": "µM"}, {"measurement": "IC50", "setting": "[2]; TDP43/Heparin Activity (IC-50)", "value": 47.9, "unit": "µM"}]}, {"compound": "Cc1cn(-c2ccc(Nc3cncc4cc(Cl)ccc34)cn2)c(C)n1", "note": "[Compound 37, 7-chloro-N-(6-(2,4-dimethyl-1H-imidazol-1-yl)pyridin-3-yl)isoquinolin-4-amine phosphoric acid salt]", "values": [{"measurement": "inhibition at 30 µM", "setting": "[1]; [3]", "value": "< 30", "unit": "%"}, {"measurement": "inhibition at 30 µM", "setting": "[2]", "value": "< 30", "unit": "%"}]}, {"compound": "Clc1ccc2c(N/N=C/c3ccc(-n4ccnc4)cc3)ccnc2c1", "note": "[Compound 38, 4-(2-(4-(1H-imidazol-1-yl)benzylidene)hydrazineyl)-7-chloroquinoline dihydrochloride]", "values": [{"measurement": "IC50", "setting": "[1]; [4]", "value": 14.9, "unit": "µM"}, {"measurement": "IC50", "setting": "[2]; TDP43/Heparin Activity (IC-50)", "value": 5.73, "unit": "µM"}]}, {"compound": "CCN1CCN(c2ccc(Nc3ccnc4cc5ccccc5cc34)cc2)CC1", "note": "[Compound 39, N-(4-(4-ethylpiperazin-1-yl)phenyl)benzo[g]quinolin-4-amine]", "values": [{"measurement": "inhibition at 30 µM", "setting": "[1]; [5]", "value": "> 30", "unit": "%"}, {"measurement": "inhibition at 30 µM", "setting": "[2]", "value": "> 30", "unit": "%"}]}, {"compound": "Cc1ncn(-c2ncc(Nc3ncnc4cc(Cl)ccc34)cc2O)c1C", "note": "[Compound 40, 5-((7-chloroquinazolin-4-yl)amino)-2-(4,5-dimethyl-1H-imidazol-1-yl)pyridin-3-ol phosphoric acid salt]", "values": [{"measurement": "inhibition at 30 µM", "setting": "[1]; [3]", "value": "> 30", "unit": "%"}, {"measurement": "IC50", "setting": "[2]; TDP43/Heparin Activity (IC-50)", "value": 7.42, "unit": "µM"}]}, {"compound": "Clc1ccc2c(Nc3ccc(-n4ccnc4)nc3)ncnc2c1", "note": "[Compound 41, N-(6-(1H-imidazol-1-yl)pyridin-3-yl)-7-chloroquinazolin-4-amine]", "values": [{"measurement": "IC50", "setting": "[1]; SAA, heparin-BSA; read-out: Serum Amyloid A/Heparin Activity (IC-50)", "value": 12.2, "unit": "µM"}, {"measurement": "IC50", "setting": "[2]; read-out: TDP43/Heparin Activity (IC-50)", "value": 4.25, "unit": "µM"}]}, {"compound": "CCN(CC)Cc1cccc(Nc2ccnc3cc(Cl)ccc23)c1", "note": "[Compound 42, 7-chloro-N-(3-((diethylamino)methyl)phenyl)quinolin-4-amine]", "values": [{"measurement": "inhibition at 30 µM", "setting": "[1]; [5]", "value": "< 30", "unit": "%"}, {"measurement": "inhibition at 30 µM", "setting": "[2]", "value": "< 30", "unit": "%"}]}, {"compound": "C[n+]1ccn(-c2ccc(Nc3ncnc4cc(Cl)ccc34)cn2)c1", "note": "[Compound 43, 1-(5-((7-chloroquinazolin-4-yl)amino)pyridin-2-yl)-3-methyl-1H-imidazol-3-ium iodide phosphoric acid salt]", "values": [{"measurement": "IC50", "setting": "[1]; [4]", "value": 31.5, "unit": "µM"}, {"measurement": "inhibition at 30 µM", "setting": "[2]", "value": "< 30", "unit": "%"}]}, {"compound": "Clc1ccc2c(Nc3ccc(-n4cncn4)nc3)ccnc2c1", "note": "[Compound 44, N-(6-(1H-1,2,4-triazol-1-yl)pyridin-3-yl)-7-chloroquinolin-4-amine]", "values": [{"measurement": "IC50", "setting": "[1]; [4]", "value": 17.4, "unit": "µM"}, {"measurement": "IC50", "setting": "[2]; TDP43/Heparin Activity (IC-50)", "value": 6.54, "unit": "µM"}]}, {"compound": "CN(C)Cc1cc(Nc2ccnc3cc(Cl)ccc23)ccn1", "note": "[Compound 45, 7-chloro-N-(2-((dimethylamino)methyl)pyridin-4-yl)quinolin-4-amine]", "values": [{"measurement": "IC50", "setting": "[1]; [4]", "value": 63.5, "unit": "µM"}, {"measurement": "inhibition at 30 µM", "setting": "[2]", "value": "< 30", "unit": "%"}]}]}
